Data set [1] relates to MAO-B. The arrangement: method as in PMID 27028260. Conditions: read-out: IC50 against MAO-B; cited from earlier work.
Data set [2] concerns the target T1, hMAO-B (Homo sapiens, UniProt P27338).
T1 construct: purchased Sigma-Aldrich (Steinheim, Germany)
T1 sequence (P27338 1-520): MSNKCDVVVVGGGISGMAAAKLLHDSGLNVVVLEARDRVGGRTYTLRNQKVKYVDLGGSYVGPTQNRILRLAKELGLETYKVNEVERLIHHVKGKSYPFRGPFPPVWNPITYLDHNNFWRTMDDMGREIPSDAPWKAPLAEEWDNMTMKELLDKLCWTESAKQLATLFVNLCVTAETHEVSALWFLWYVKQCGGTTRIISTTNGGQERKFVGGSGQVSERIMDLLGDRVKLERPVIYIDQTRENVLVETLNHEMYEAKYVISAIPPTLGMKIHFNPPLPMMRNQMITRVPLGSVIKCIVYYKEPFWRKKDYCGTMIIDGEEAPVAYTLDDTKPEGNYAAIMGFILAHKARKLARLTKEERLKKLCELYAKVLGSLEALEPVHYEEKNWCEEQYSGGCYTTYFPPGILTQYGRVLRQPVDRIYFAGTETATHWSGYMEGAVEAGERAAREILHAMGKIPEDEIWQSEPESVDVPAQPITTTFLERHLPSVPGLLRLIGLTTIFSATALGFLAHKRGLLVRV
In words: MAO-B inhibition assay, fluorometric (Amplex Red / horseradish peroxidase-coupled).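 Note: fluorescence read at Ex 535 nm and Em 587 nm over 30 min, linear phase, inhibition relative to uninhibited control wells, IC50 from log concentration–response curves.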 It counts as biochemical.
Excerpt: FCt2: Fluorescence of a control well measured at t2 time, FCt1: Fluorescence of a control well measured at t2 time, FIt2: Fluorescence of an inhibitor well measured at t2 time, FIt1: Fluorescence of an inhibitor well measured at t1 time,

In data set [3] the target is T1, hMAO-B. The experiment in a line: Enzyme kinetic studies (Lineweaver-Burk plots, secondary plot). The format is biochemical. As to the method: The same materials were used in the MAO inhibition assay. […] All processes were evaluated in quadruplicate. The results were analysed as Lineweaver–Burk plots by means of Microsoft Office Excel 2013. The […] of the Lineweaver–Burk plots were replotted versus the inhibitor concentration, and the Ki values were determined from the x-axis intercept as −Ki.
Enzyme kinetics studies were performed to determine the mechanism of hMAO-B inhibition by using a procedure similar to that of the MAO inhibition assay. […] In order to estimate the type of inhibition of these compounds, linear Lineweaver-Burk graphs were used. Substrate velocity curves in the absence and presence of compounds 4i and 4t were recorded. […] In each case, the initial velocity measurements were obtained at different substrate (tyramine) concentrations ranging from 20 μM to 0.625 μM.
The type of inhibition can be determined as either reversible or irreversible by using the Lineweaver-Burk plots. The reversible inhibition type can be classified as mixed-type, uncompetitive, competitive, or non-competitive[17]^,[20–22]. […] Competitive inhibition is seen if the lines intersect on the y-axis, and the slopes and x-intercepts are different. On the contrary, non-competitive inhibition has the opposite result: the plotted lines have the same x-intercept but there are diverse slopes and y-intercepts.

The subject of data set [4] is NIH/3T3 mouse embryonic fibroblast cell line. The experiment in a line: Cytotoxicity MTT assay. It counts as cell-based. Conditions: NIH3T3 cells. As for the experimental part:
(§1) The NIH/3T3 mouse embryonic fibroblast cell line (ATCC®CRL-1658 ™, London, UK) was used for cytotoxicity assays. The incubation period of NIH/3T3 cells was based on the supplier's recommendation. NIH/3T3 cells were seeded at 1 × 10^4 cells into each well of 96-well plates. MTT assay was carried out in accordance with the standards previously described manner[23]^,[24]. The compounds were tested between 1 and 0.000316 mM concentrations.
A general note: Tetrazolium assays rely on reduction of a dye to a coloured formazan, in cell work by metabolically active cells.

A short description of data set [5]: Cytotoxicity MTT assay. The format is cell-based, mouse. The conditions noted are these: mouse, NIH/3T3 mouse embryonic fibroblast cells, read-out: IC50 NIH/3T3 cell line. As for the experimental part:
as §1

Data set [6] deals with T2, hMAO-A (Homo sapiens, UniProt P21397).
T2 construct: purchased Sigma-Aldrich (Steinheim, Germany)
T2 sequence (P21397 1-527): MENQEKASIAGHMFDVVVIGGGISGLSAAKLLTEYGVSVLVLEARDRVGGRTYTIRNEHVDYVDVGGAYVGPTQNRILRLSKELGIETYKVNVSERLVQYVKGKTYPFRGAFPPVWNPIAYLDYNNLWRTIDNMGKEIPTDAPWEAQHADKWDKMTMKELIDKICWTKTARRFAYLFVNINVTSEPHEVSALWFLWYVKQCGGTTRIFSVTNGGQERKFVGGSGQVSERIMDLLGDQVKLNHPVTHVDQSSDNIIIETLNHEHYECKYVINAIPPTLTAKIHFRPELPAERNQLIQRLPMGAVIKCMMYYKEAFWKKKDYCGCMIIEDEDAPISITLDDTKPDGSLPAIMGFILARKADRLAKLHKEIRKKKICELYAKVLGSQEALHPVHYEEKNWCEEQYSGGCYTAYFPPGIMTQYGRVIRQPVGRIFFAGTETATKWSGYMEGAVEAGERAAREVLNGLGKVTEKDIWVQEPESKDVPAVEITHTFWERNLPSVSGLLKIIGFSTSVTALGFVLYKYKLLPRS
In words: MAO-A inhibition assay, fluorometric (Amplex Red / horseradish peroxidase-coupled). The format is biochemical. The conditions noted are these: read-out: MAO-A % Inhibition. As for the experimental part: A Biotek Precision XS robotic system (USA) was used for all pipetting operations. Measurements were performed with the use of BioTek-Synergy H1 microplate reader (USA) based upon the fluorescence generated (excitation, 535 nm, emission, 587 nm) over a 30 min period, in which the fluorescence increased linearly.
Enzymatic assay was performed according to recent method pronounced by our research group[17]^,[20–22]. Control, blank and all concentrations of obtained compounds were tested in quadruplicate and inhibition percent was calculated with following equation: % Inhibition=(FCt2 − FCt1) − (FIt2 − FIt1)/FCt2 − FCt1 × 100
FCt2: Fluorescence of a control well measured at t2 time, FCt1: Fluorescence of a control well measured at […]: Fluorescence of an inhibitor well measured at t2 time, FIt1: Fluorescence of an inhibitor well measured at t1 time,
The IC50 values were calculated using a dose-response curve achieved by plotting the percentage inhibition versus the log concentration using GraphPad ‘PRISM’ software (version 5.0).
All the obtained benzylamine-sulphonamide derivatives 4a–4u were investigated for their inhibitory activity against MAO isoforms using a previously described in vitro fluorometric method, which is based on the detection of H2O2 in a horseradish peroxidase-coupled reaction using 10-acetyl-3,7-dihydroxyphenoxazine (Amplex Red reagent)[17]^,[20–22].
The assay was carried out in two steps. […].

Entries after “also recorded” stand apart in the source; their conditions may differ.

As a reminder, the inhibition is the percentage by which the read-out fell short of the control. In general, Ki refers to a measure of affinity in units of concentration, obtained from inhibition or displacement. Broadly, the melting point is the temperature of the solid-liquid transition.

`O=C(CSc1nc2cc(Cl)ccc2s1)N(Cc1cccc([N+](=O)[O-])c1)c1ccc(F)cc1` [BB-4h, 2-((5-chlorobenzothiazol-2-yl)thio)-N-(4-fluorophenyl)-N-(3-nitrobenzyl)acetamide]: the IC50 in data set [1] was 2950 ± 90 nM.
The compound `Cc1ccc(CN(C(=O)CSc2nc3cc(Cl)ccc3s2)c2ccc(S(N)(=O)=O)cc2)cc1` [Compound 4t, 2-((5-Chlorobenzothiazol-2-yl)thio)-N-(4-methylbenzyl)-N-(4-sulfamoylphenyl)acetamide] yielded a melting point of 109 to 111 °C. The inhibition at 1000 µM in data set [2] (10^−3 M) amounted to 92.6 ± 1.13%. Besides, the inhibition at 100 µM in data set [2] (10^−4 M) came to 88.6 ± 1.2%. This compound also displayed an inhibition at 10 µM in data set [2] (10^−5 M) of 80.5 ± 1.16%. Also, the inhibition at 1 µM in data set [2] (10^−6 M) was found to be 74.7 ± 1.01%. The compound also had an inhibition at 0.1 µM in data set [2] (10^−7 M) of 60.8 ± 1.16%. The same compound registered an inhibition at 0.01 µM in data set [2] (10^−8 M) of 36.1 ± 0.862%. Further, in data set [2] (10^−9 M), the inhibition at 0.001 µM amounted to 21 ± 0.594%. Besides, the IC50 in data set [2] (Table 2, mean ± SD, read-out: IC50 against MAO-B) came to 65 ± 2 nM. Also, the type of inhibition result in data set [3] (Lineweaver-Burk plot) is “reversible and non-competitive”. Moreover, the Ki in data set [3] (substrate tyramine, secondary plot, read-out: Ki, steady-state inhibition constant) was 55 nM. Moreover, the “cytotoxicity (in words)” value in data set [4] was “non-toxic; also recorded: non-cytotoxic at their effective concentrations”. The IC50 in data set [5] is greater than 1 mM. Besides, the inhibition at 1000 µM in data set [6] (10^−3 M) was 52.6 ± 0.987%. Besides, the inhibition at 100 µM in data set [6] (10^−4 M) was 38.3 ± 0.503%.
